Experimental data published in article PMC8774364, “Anti-Colon Cancer Activity of Novel Peptides Isolated from In Vitro Digestion of Quinoa Protein in Caco-2 Cells” (Foods, 2022).
Where two headings read alike, the source gives them in different places. Marks after values point to notes of the source that are not given here. Ends that are not written are not given here.

Columns and labels:
Caco-2 cells = assay type: cell-based, human; conditions: for Viable Cells (%): SD; for inhibition of Caco-2 proliferation: human, Caco-2, 72 h
Description: The human CRC cell line Caco-2 was obtained from American Type Cell Collection (ATCC, Manassas, VA, USA) and cultured in MEM medium supplemented with 20% FBS, 1% penicillin, and 1% streptomycin. Cells were maintained at 37 °C in a humidified incubator containing 5% CO2 and 95% air. The medium was changed every 24 h. All cells were assayed within 5–15 passages. Utilizing the CCK-8 kit (Biorigin, Beijing, China), the toxicity test was first performed. Caco-2 cells (100 µL) were incubated in the 96-well plate (1 × 10^5 cells/well) for 24 h, then the original medium was replaced with fresh medium containing different concentrations of QP (1–8 g/L), QPH (1–8 g/L), fraction MW < 5 kDa (1–8 g/L), fraction MW > 5 kDa (1–8 g/L), and selected peptides ranging from 0 to 2 g/L. After 24 h co-cultivation, the medium was discarded and washed with PBS 2 times, and a fresh medium with 10% CCK-8 reagent was added to each cell. Another 1 h later, the absorbance (OD value) was determined by an enzyme-labeling instrument at a wavelength of 450 nm. Experiments were performed in triplicate with at least three replicates per concentration, and results were expressed as percentage of negative control (non-treated Caco-2 cells).
For the proliferation experiments, Caco-2 cells were seeded into 96-well plates at a density of 2.5 × 10^4 per well for 24 h, the incubation was continued for 72 h. After that, the subsequent washing and CCK-8 reaction process were the same as performed in the toxicity test. Finally, the absorbance was also detected at 450 nm. Analyses were performed in triplicate with at least three replicates per concentration, and results were also shown as the percentage of non-treated Caco-2 cells.

HDAC1 = target: T1, HDAC1 (Homo sapiens, UniProt Q13547); experiment: HDAC1 inhibitory activity assay (inhibitor screening kit, fluorescence); assay type: biochemical; conditions: for HDAC1 IC50 attained or not, in words: peptide 0.05–2 g/L tested; for IC50: peptide 0.05–2 g/L, 30 min at 37 °C, fluorescence, triplicate
T1 construct: purchased Abnova
T1 sequence (Q13547 whole entry): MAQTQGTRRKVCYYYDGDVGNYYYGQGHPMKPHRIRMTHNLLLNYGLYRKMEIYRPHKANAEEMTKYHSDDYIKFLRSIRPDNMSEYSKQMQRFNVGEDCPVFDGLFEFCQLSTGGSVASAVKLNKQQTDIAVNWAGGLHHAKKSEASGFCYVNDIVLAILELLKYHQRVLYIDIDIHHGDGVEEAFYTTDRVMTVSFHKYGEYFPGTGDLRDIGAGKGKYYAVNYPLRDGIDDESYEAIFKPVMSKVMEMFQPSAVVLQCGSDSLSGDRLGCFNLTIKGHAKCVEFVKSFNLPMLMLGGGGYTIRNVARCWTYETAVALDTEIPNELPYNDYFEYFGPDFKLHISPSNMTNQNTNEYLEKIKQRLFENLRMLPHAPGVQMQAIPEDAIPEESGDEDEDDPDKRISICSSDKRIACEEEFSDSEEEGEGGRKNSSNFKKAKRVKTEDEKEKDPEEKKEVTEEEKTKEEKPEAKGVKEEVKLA
Description: HDAC1 activity was determined using the HDAC1 inhibitor screening assay kit (Abnova, Taipei, Taiwan). The assay was performed according to the manufacture instruction manual. Briefly, the sample wells were added 140 µL assay buffer, 10 µL diluted HDAC1, and 10 µL peptide samples (0.05–2 g/L). The trichostatin A was set as the positive control, and the sample buffer was set as the negative control. We initiated the reactions by adding 10 µL of HDAC substrate to all the wells being used. Cover the plate with the plate cover and incubate on a shaker for 30 min at 37 °C. Remove the plate cover and add 40 µL of developer. Cover the plate with the plate cover and incubate for 15 min at room temperature. Remove the plate cover and read the fluorescence using an excitation wavelength of 340–360 nm and an emission wavelength of 440–465 nm. IC50 values were calculated using GraphPad Prism 8 software. Analyses were performed in triplicate with at least three replicates per concentration.

colon cancer cells = conditions: read-out: 50% inhibition; cited from earlier work
Excerpt: Histone acetylation and deacetylation are important for the regulation of gene expression. The family of HDACs includes 18 members, and class I HDACs (HDAC 1, 2, 3, and 8) is considered to be the most important ones. […] For example, HDAC1 expression was increased in colorectal cancer and gastric cancer. In contrast, HDAC1 knockdown causes cell cycle arrest, reduces cancer cell viability, and induces cancer cell apoptosis. Moreover, pharmacological inhibitors ...

[1] = Caco-2, CCK-8, peptide 1 g/L, % of non-treated cells, mean ± SD
[2] = Caco-2, CCK-8, peptide 1 × 10^−1 g/L, % of non-treated cells, mean ± SD
[3] = Caco-2, CCK-8, peptide 2 g/L, % of non-treated cells, mean ± SD
[4] = Caco-2, CCK-8, peptide 5 × 10^−1 g/L, % of non-treated cells, mean ± SD

| HDAC1 IC50 attained or not, in words (HDAC1) | IC50 (HDAC1) [µM] | Substance | Viable Cells (%) (Caco-2 cells; 24 h, 0.1 g/L) | Viable Cells (%) (Caco-2 cells; 24 h, 0.5 g/L) | Viable Cells (%) (Caco-2 cells; 24 h, 1 g/L) | Viable Cells (%) (Caco-2 cells; 24 h, 2 g/L) | inhibition of Caco-2 proliferation (Caco-2 cells; 1 g/L) | Viable Cells (%) (Caco-2 cells; [1]) | Viable Cells (%) (Caco-2 cells; [2]) | Viable Cells (%) (Caco-2 cells; [3]) | Viable Cells (%) (Caco-2 cells; [4]) | IC50 (colon cancer cells) [µM] |
| --- | --- | --- | --- | --- | --- | --- | --- | --- | --- | --- | --- | --- |
| can reach to IC50 value | 1370 | NWFPLPR [NWFPLPR] | 92.86 ± 1.10 ^d % | 79.99 ± 0.86 ^e % | 64.02 ± 1.39 ^j % | 63.18 ± 0.83 ^i % | more than 30% |  |  |  |  |  |
| can reach to IC50 value | 1650 | HYNPYFPGGA [HYNPYFPGGA] | 93.69 ± 0.68 ^d % | 82.34 ± 1.36 ^e % | 67.44 ± 1.26 ^i % | 67.10 ± 1.87 ^h % | more than 30% |  |  |  |  |  |
| can reach to IC50 value |  | SLPNFHPFPR [quinoa peptide identified from QPH fraction < 5 kDa] |  |  |  |  |  | 78.51 ± 0.26 ^g % | 97.79% | 78.00 ± 0.80 ^f % | 87.21 ± 0.32 ^d % |  |
|  |  | SVENWFPLPR [quinoa peptide identified from QPH fraction < 5 kDa] |  |  |  |  |  | 92.14 ± 0.69 ^c % | 99.43% | 91.04 ± 1.53 ^c % | 95.50 ± 3.60 ^b % |  |
| can reach to IC50 value |  | PNFHPFPR [PNFHPFPR] | 90.46 ± 1.43 ^e % | 77.26 ± 1.65 ^f % | 65.32 ± 1.45 ^j % | 61.67 ± 1.64 ^i % | more than 30% |  |  |  |  |  |
|  |  | lunasin |  |  |  |  |  |  |  |  |  | 61.7 |
|  |  | HGSLGFLPR [quinoa peptide identified from QPH fraction < 5 kDa] |  |  |  |  |  | 96.81 ± 0.88 ^b % | 97.35 ± 1.03 ^c % | 95.80 ± 0.62 ^b % | 96.91% |  |
|  |  | NSWGPNWGDHG [quinoa peptide identified from QPH fraction < 5 kDa] |  |  |  |  |  | 99.58 ± 1.08 ^a % | 98.87% | 97.92 ± 1.41 ^a % | 98.60 ± 2.28 ^a % |  |
| can reach to IC50 value | 1090 | FHPFPR [FHPFPR] | 90.04 ± 1.26 ^e % | 75.46 ± 0.86 ^f % | 51.41 ± 0.80 ^k % | 50.82 ± 0.76 ^j % | more than 30% |  |  |  |  |  |
|  |  | NSLSLPNFHPFPR [quinoa peptide identified from QPH fraction < 5 kDa] |  |  |  |  |  | 86.55 ± 0.58 ^e % | 100.79 ± 0.52 ^a % | 83.56 ± 0.71 ^d % | 92.78 ± 2.20 ^c % |  |
|  |  | GLESPNYPWPH [quinoa peptide identified from QPH fraction < 5 kDa] |  |  |  |  |  | 97.40 ± 0.73 ^b % | 99.75 ± 1.06 ^a % | 97.70% | 99.32 ± 1.05 ^a % |  |
| can reach to IC50 value |  | NIFRPF [quinoa peptide identified from QPH fraction < 5 kDa] |  |  |  |  |  | 70.29 ± 0.56 ^h % | 100.10 ± 1.03 ^a % | 70.55 ± 2.01 ^g % | 85.11 ± 0.66 ^d % |  |
|  |  | FGGGTLGHPW [quinoa peptide identified from QPH fraction < 5 kDa] |  |  |  |  |  | 90.41 ± 0.69 ^d % | 97.09 ± 0.74 ^c % | 89.72 ± 0.60 ^c % | 91.65 ± 0.43 ^c % |  |
| can reach to IC50 value |  | INNIFRPF [quinoa peptide identified from QPH fraction < 5 kDa] |  |  |  |  |  | 80.44 ± 0.68 ^f % | 100.40 ± 1.29 ^a % | 80.61 ± 0.41 ^e % | 92.05 ± 1.07 ^c % |  |
